{"source": "patent US20240156723A1", "about": "“DEPOT COMPOSITIONS FOR VESICULAR MONOAMINE TRANSPORTER 2 (VMAT2) INHBITORS” (Foresee Pharmaceuticals Co., Ltd., priority 2022, published 2024)", "key": {"solubility in heptane": {"assay": "solubility in heptane", "type": "physicochemical", "details": "room temperature"}, "[1]": {"assay": "particle size distribution by laser diffraction (Mastersizer 3000)", "type": "physicochemical", "details": "re-dispersed in 0.2% Tween 20 deionized water", "description": "(§1) Briefly, 10 mg/mL (+)-TBZ or (±)-d6-TBZ recrystallized crystal was re-dispersed in 0.2% Tween 20 deionized water with a rigorous vortex. The microscopy was conducted using the optical microscope Leica DMi8, with 100-fold magnification. The PSD was measured using laser diffraction method, with Mastersizer 3000 (Malvern, UK). Before particle sizing, the 10 mg/mL (+)-TBZ crystal was re-dispersed in 0.2% Tween 20 deionized water and sonicated for ˜10 sec.\nas §1, with “(+)-TBZ” for “(+)-TBZ or (±)-d6-TBZ”\nFour grams of raw (+)-TBZ crystals were jet milled in a 20 mm milling chamber at room temperature (Micromacinazione, Switzerland). Briefly, the jet mill was connected to high pressure nitrogen for providing the pneumatic forces. The grinding pressure and feeding pressure are set on 2.5 bar and 5 bar, respectively. The feeding rate of raw (+)-TBZ crystal was 1.6 g/m in. The fine (+)-TBZ powder was collected by the cyclone and recovered in a vial. The yield was ˜80%. The PSD was characterized using laser diffraction method, with Mastersizer 3000 (Malvern, UK). Before particle sizing, the 10 mg/mL (+)-TBZ crystal was re-dispersed in 0.2% Tween 20 deionized water and sonicated for ˜10 sec. […]\nFour grams of raw cholesterol crystals (Nippon fine chemical, Japan) was jet milled in a 20 mm milling chamber at room temperature (Micromacinazione, Switzerland). The jet mill was connected to high pressure nitrogen for providing the pneumatic forces. The grinding pressure and feeding pressure are set on 2.5 bar and 5 bar, respectively. The feeding rate of raw cholesterol crystal was 1.6 g/m in. The fine CSTR powder was collected by the cyclone and recovered in a vial. The yield was ˜80%. The PSD was characterized using laser diffraction method, with Mastersizer 3000 (Malvern, UK). Before particle sizing, the 10 mg/mL CSTR crystal was re-dispersed in 0.2% Tween 20 deionized water and sonicated for ˜10 sec.\nThe spray drying was conducted with Mini Spray Dryer B-290, (Buchi, Switzerland). First, 10 grams of raw cholesterol crystal was dissolved in 300 mL isopropanol (IPA) with 35-40° C. heating to obtain a clear solution. The spray drying was conducted at a flow rate of 12.5 ml/min and completed in 2 hours. The fine CSTR particles were collected by the cyclone and recovered in a vial. The yield was about 80%. […] Briefly, 10 mg/mL SPD CSTR was re-dispersed in 0.2% Tween 20 deionized water with a rigorous vortex. The microscopy was conducted using the optical microscope Leica DMi8, with 100-fold magnification. The PSD was characterized using laser diffraction method, with Mastersizer 3000 (Malvern, UK) and the results are shown in Table 12. Before particle sizing, the 10 mg/mL SPD CSTR was re-dispersed in 0.2% Tween 20 deionized water and sonicated for ˜10 sec. […]\n4 grams of raw (+)-α-DHTBZ crystals (Wuxi Pharma, China) were jet milled in a 20 mm milling chamber at room temperature (Micromacinazione, Switzerland). Briefly, the jet mill was connected to high pressure nitrogen for providing pneumatic forces, with grinding pressure and feeding pressure set at 4 and 5 bars, respectively. The feeding rate of raw (+)-α-DHTBZ crystals was 1.6 g/m in. Fine milled (+)-α-DHTBZ crystals were collected by the cyclone and recovered in a vial. The yield was ˜80%. The PSD of jet-milled (+)-α-DHTBZ was characterized using laser diffraction method, with Mastersizer 3000 (Malvern, UK). Before particle sizing, the 10 mg jet milled (+)-α-DHTBZ was re-dispersed in 1 mL of 0.2% Tween-20 deionized water and sonicated for ˜10 sec."}, "[2]": {"details": "cited from earlier work"}, "[3]": {"target": "serotonin 5-HT7 receptors (Homo sapiens, UniProt P34969)", "sequence (P34969 whole entry)": "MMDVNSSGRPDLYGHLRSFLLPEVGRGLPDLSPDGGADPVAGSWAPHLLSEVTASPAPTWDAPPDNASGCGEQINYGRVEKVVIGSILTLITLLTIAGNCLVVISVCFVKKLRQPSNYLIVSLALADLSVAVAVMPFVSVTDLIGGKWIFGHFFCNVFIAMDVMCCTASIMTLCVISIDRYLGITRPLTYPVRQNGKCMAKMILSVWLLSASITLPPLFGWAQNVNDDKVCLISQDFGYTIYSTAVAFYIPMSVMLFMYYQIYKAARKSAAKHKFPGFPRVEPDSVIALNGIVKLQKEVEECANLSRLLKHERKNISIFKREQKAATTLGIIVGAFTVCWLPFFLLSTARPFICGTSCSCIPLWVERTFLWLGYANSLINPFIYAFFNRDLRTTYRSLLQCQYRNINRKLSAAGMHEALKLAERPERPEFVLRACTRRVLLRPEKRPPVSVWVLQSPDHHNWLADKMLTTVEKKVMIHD", "details": "serotonin 5-HT7 receptor; read-out: off-target binding affinity to serotonin 5-HT7; cited from earlier work"}, "dopamine D2": {"target": "dopamine D2 (Homo sapiens, UniProt P14416)", "sequence (P14416 whole entry)": "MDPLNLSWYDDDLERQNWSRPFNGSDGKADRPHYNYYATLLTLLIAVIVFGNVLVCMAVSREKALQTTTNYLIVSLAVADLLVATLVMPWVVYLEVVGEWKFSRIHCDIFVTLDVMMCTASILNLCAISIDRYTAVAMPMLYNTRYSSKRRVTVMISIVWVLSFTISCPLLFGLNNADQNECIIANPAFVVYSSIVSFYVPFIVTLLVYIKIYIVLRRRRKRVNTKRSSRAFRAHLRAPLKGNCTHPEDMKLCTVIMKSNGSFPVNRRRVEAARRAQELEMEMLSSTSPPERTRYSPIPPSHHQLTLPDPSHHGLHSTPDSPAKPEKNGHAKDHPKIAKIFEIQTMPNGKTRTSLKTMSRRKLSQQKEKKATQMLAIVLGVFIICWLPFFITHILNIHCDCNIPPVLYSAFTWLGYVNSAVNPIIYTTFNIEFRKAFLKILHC", "details": "dopamine D2 receptor; read-out: off-target binding affinity to dopamine D2; cited from earlier work"}, "[4]": {"details": "listed as 3 g rex (+)-TBZ-1 iii"}}, "note": "pKi: −log10 of the molar value."}
{"compound": "CC(C)CCC[C@@H](C)[C@H]1CC[C@H]2[C@@H]3CC=C4C[C@@H](O)CC[C@]4(C)[C@H]3CC[C@]12C", "note": "[cholesterol]", "values": [{"measurement": "solubility in heptane", "setting": "solubility in heptane", "value": "> 10", "unit": "% by weight"}, {"measurement": "D50 (μm)", "setting": "[1]", "value": 27.3, "unit": "μm"}, {"measurement": "D10 (μm)", "setting": "[1]; listed as Jet milled CSTR", "value": 0.3, "unit": "μm"}, {"measurement": "D50 (μm)", "setting": "[1]; listed as Jet milled CSTR", "value": 4.6, "unit": "μm"}, {"measurement": "D90 (μm)", "setting": "[1]; listed as Jet milled CSTR", "value": 12, "unit": "μm"}, {"measurement": "D10 (μm)", "setting": "[1]; listed as Raw CSTR", "value": 14.1, "unit": "μm"}, {"measurement": "D50 (μm)", "setting": "[1]; listed as Raw CSTR", "value": 27.3, "unit": "μm"}, {"measurement": "D90 (μm)", "setting": "[1]; listed as Raw CSTR", "value": 48, "unit": "μm"}, {"measurement": "D10 (μm)", "setting": "[1]; listed as Spray dried CSTR", "value": 0.2, "unit": "μm"}, {"measurement": "D50 (μm)", "setting": "[1]; listed as Spray dried CSTR", "value": 2.0, "unit": "μm"}, {"measurement": "D90 (μm)", "setting": "[1]; listed as Spray dried CSTR", "value": 5.0, "unit": "μm"}]}
{"compound": "COc1cc2c(cc1OC)[C@H]1CC(=O)[C@H](CC(C)C)CN1CC2", "note": "[(+)-TBZ, (3R,11bR)-tetrabenazine]", "values": [{"measurement": "solubility in heptane", "setting": "solubility in heptane", "value": "< 0.4", "unit": "% by weight"}, {"measurement": "D10 (μm)", "setting": "[1]; listed as 3 g rex (+)-TBZ-1 i", "value": 17.3, "unit": "μm"}, {"measurement": "D50 (μm)", "setting": "[1]; listed as 3 g rex (+)-TBZ-1 i", "value": 38.5, "unit": "μm"}, {"measurement": "D90 (μm)", "setting": "[1]; listed as 3 g rex (+)-TBZ-1 i", "value": 75.0, "unit": "μm"}, {"measurement": "D10 (μm)", "setting": "[1]; listed as 3 g rex (+)-TBZ-1 ii", "value": 22.0, "unit": "μm"}, {"measurement": "D50 (μm)", "setting": "[1]; listed as 3 g rex (+)-TBZ-1 ii", "value": 45.9, "unit": "μm"}, {"measurement": "D90 (μm)", "setting": "[1]; listed as 3 g rex (+)-TBZ-1 ii", "value": 85.7, "unit": "μm"}, {"measurement": "D10 (μm)", "setting": "[1]; [4]", "value": 16.6, "unit": "μm"}, {"measurement": "D50 (μm)", "setting": "[1]; [4]", "value": 33.7, "unit": "μm"}, {"measurement": "D90 (μm)", "setting": "[1]; [4]", "value": 60.7, "unit": "μm"}, {"measurement": "D10 (μm)", "setting": "[1]; listed as 12 g rex (+)-TBZ i", "value": 15.9, "unit": "μm"}, {"measurement": "D50 (μm)", "setting": "[1]; listed as 12 g rex (+)-TBZ i", "value": 34.9, "unit": "μm"}, {"measurement": "D90 (μm)", "setting": "[1]; listed as 12 g rex (+)-TBZ i", "value": 65.8, "unit": "μm"}, {"measurement": "D10 (μm)", "setting": "[1]; listed as 12 g rex (+)-TBZ ii", "value": 17.7, "unit": "μm"}, {"measurement": "D50 (μm)", "setting": "[1]; listed as 12 g rex (+)-TBZ ii", "value": 40.8, "unit": "μm"}, {"measurement": "D90 (μm)", "setting": "[1]; listed as 12 g rex (+)-TBZ ii", "value": 80.4, "unit": "μm"}, {"measurement": "D10 (μm)", "setting": "[1]; listed as 12 g rex (+)-TBZ iii", "value": 16.7, "unit": "μm"}, {"measurement": "D50 (μm)", "setting": "[1]; listed as 12 g rex (+)-TBZ iii", "value": 38, "unit": "μm"}, {"measurement": "D90 (μm)", "setting": "[1]; listed as 12 g rex (+)-TBZ iii", "value": 76, "unit": "μm"}, {"measurement": "D10 (μm)", "setting": "[1]; listed as Jet milled (+)-TBZ", "value": 2.5, "unit": "μm"}, {"measurement": "D50 (μm)", "setting": "[1]; listed as Jet milled (+)-TBZ", "value": 5.2, "unit": "μm"}, {"measurement": "D90 (μm)", "setting": "[1]; listed as Jet milled (+)-TBZ", "value": 11.8, "unit": "μm"}, {"measurement": "D10 (μm)", "setting": "[1]; listed as Raw (+)-TBZ", "value": 14.3, "unit": "μm"}, {"measurement": "D50 (μm)", "setting": "[1]; listed as Raw (+)-TBZ", "value": 66.5, "unit": "μm"}, {"measurement": "D90 (μm)", "setting": "[1]; listed as Raw (+)-TBZ", "value": 184, "unit": "μm"}]}
{"compound": "COc1cc2c(cc1OC)C1CC(=O)C(CC(C)C)CN1CC2", "note": "(racemic) [TBZ, 1,3,4,6,7,11b-hexahydro-9,10-dimethoxy-3-(2-methoxylrpopryl)-2H-benzo(a)quinoline-2-one, reference compound]", "values": [{"measurement": "oral bioavailability", "setting": "[2]", "value": 17, "unit": "%"}, {"measurement": "D10 (μm)", "setting": "[1]", "value": 4.2, "unit": "μm"}, {"measurement": "D50 (μm)", "setting": "[1]", "value": 9.2, "unit": "μm"}, {"measurement": "D90 (μm)", "setting": "[1]", "value": 20.1, "unit": "μm"}]}
{"compound": "[−]-β-dihydrotetrabenazine [(−)-(β)-DHTBZ]", "values": [{"measurement": "pKi", "setting": "[3]", "value": 8.23}, {"measurement": "pKi", "setting": "dopamine D2", "value": 7.28}]}
{"compound": "(RR, SS)-1,3,4,6,7,11b-hexahydro-9, 10-di(methoxy-d3)-3-(2-methylpropyl) 2H-benzo[a]quinolizin-2-one [(±)-d6-TBZ, reference compound]", "values": [{"measurement": "D10 (μm)", "setting": "[1]", "value": 12.3, "unit": "μm"}, {"measurement": "D50 (μm)", "setting": "[1]", "value": 25.6, "unit": "μm"}, {"measurement": "D90 (μm)", "setting": "[1]", "value": 45.4, "unit": "μm"}]}
{"compound": "COc1cc2c(cc1OC)C1CC(O)C(CC(C)C)CN1CC2", "note": "(single isomer, unassigned; (+)) [(+)-(α)-DHTBZ, [+]-α-dihydrotetrabenazine]", "values": [{"measurement": "D10 (μm)", "setting": "[1]", "value": 5, "unit": "μm"}, {"measurement": "D50 (μm)", "setting": "[1]", "value": 13, "unit": "μm"}, {"measurement": "D90 (μm)", "setting": "[1]", "value": 40, "unit": "μm"}]}
{"compound": "COc1cc2c(cc1OC)[C@H]1C[C@@H](OC(=O)[C@@H](N)C(C)C)[C@H](CC(C)C)CN1CC2", "note": "[VBZ, L-Valine, (2R,3R,11bR)-1,3,4,6,7,11b-hexahydro-9,10-dimethoxy-3-(2-methylpropyI)-2H-benzo[a]quinolizin-2-yl ester]", "values": [{"measurement": "oral bioavailability", "setting": "[2]", "value": "~50", "unit": "%"}]}
{"compound": "COc1cc2c(cc1OC)[C@H]1C[C@@H](O)[C@H](CC(C)C)CN1CC2", "note": "[(−)-(α)-DHTBZ, [−]-α-dihydrotetrabenazine]", "values": [{"measurement": "pKi", "setting": "[3]", "value": 7.15}, {"measurement": "pKi", "setting": "dopamine D2", "value": 6.74}]}
